Type in all cases: cell-based
The test system of data set [1] is MDA-MB-231, OV90, and NCI-N87 cells. Nature of the data set: Tumor cell proliferation inhibition assay of novel ecteinascidin derivatives, summary over the three cell lines. The following applies: compared with trabectedin and lurbinectedin. The procedure:
(§1) The cells were cultured overnight in a constant-temperature incubator (37°C, 5% CO2). Ecteinascidin derivative solutions at a maximum concentration of 2 mM were first prepared in DMSO, and serial 1:4 gradient dilutions were performed. 1 µL of each DMSO-prepared dilution was added to 99 µL of PBS containing 10% FBS per well and mixed thoroughly. The diluted solutions (2 µL of diluted solution and 18 µL of PBS containing 10% FBS per well) were then co-incubated with the cells (37°C, 5% CO2) for five days, after which CellTiter-Glo reagent (40 µL per well) was added, and […] values were measured using an i3x microplate reader.

Data set [2] has as its system MDA-MB-231. The data set can be described thus: cells. The following applies: Homo sapiens, 120 h; MDA-MB-231 cells, five days co-incubation; read-out: IC50 (nM) MDA-MB-231. The method, then:
as §1, with “MDA-MB-231, OV90, and NCI-N87 cells at defined cell densities (1,500 cells per well, 80 µL volume) were seeded into 96-well plates. The cells” for “The cells”

Data set [3] deals with OV90. Nature of the data set: cells. The following applies: Homo sapiens, OV-90, 120 h; OV90 cells, five days co-incubation; read-out: IC50 (nM) OV90. The method, then:
as §1, with “MDA-MB-231, OV90, and NCI-N87 cells at defined cell densities (1,500 cells per well, 80 µL volume) were seeded into 96-well plates. The cells” for “The cells”

The test system of data set [4] is NCI-N87. The data set can be described thus: cells. The note with it: Homo sapiens, 120 h; NCI-N87 cells, five days co-incubation; read-out: IC50 (nM) NCI-N87. The method, then: as §1, with “MDA-MB-231, OV90, and NCI-N87 cells at defined cell densities (1,500 cells per well, 80 µL volume) were seeded into 96-well plates. The cells” for “The cells”

For 17 molecules, in-vitro cytotoxic activities and IC50 results are on record in patent EP4778932A1 (priority 2023, dated 2025).

As a reminder, the IC50 is the concentration that inhibits the measured activity by half. For the molecule `COc1cc2c(cc1N)C(C)(C)CN[C@]21CS[C@@H]2c3c(OC(C)=O)c(C)c4c(c3[C@H](COC1=O)N1[C@@H]2[C@H]2c3c(cc(C)c(OC)c3O)C[C@@H]([C@@H]1C#N)N2C)OCO4` [P19], in data set [1], the in-vitro cytotoxic activities entry is “superior to or comparable to those of trabectedin and lurbinectedin”. The IC50 in data set [2], in data set [3] and in data set [4] was less than 1 nM in each case.
As for `COc1cc2c(cc1N)C(N(C)C)CN[C@]21CS[C@@H]2c3c(OC(C)=O)c(C)c4c(c3[C@H](COC1=O)N1[C@@H]2[C@H]2c3c(cc(C)c(OC)c3O)C[C@@H]([C@@H]1C#N)N2C)OCO4` (some centres unmarked) [P30], the in-vitro cytotoxic activities result in data set [1] was “superior to or comparable to those of trabectedin and lurbinectedin”. The concentration for half-maximal inhibition (IC50) in data set [2], in data set [3] and in data set [4] was less than 1 nM in each case.
Consider `COc1cc2c(cc1N)C1(CC1)CN[C@]21CS[C@@H]2c3c(OC(C)=O)c(C)c4c(c3[C@H](COC1=O)N1[C@@H]2[C@H]2c3c(cc(C)c(OC)c3O)C[C@@H]([C@@H]1C#N)N2C)OCO4` [P36], for which the in-vitro cytotoxic activities entry in data set [1] is “superior to or comparable to those of trabectedin and lurbinectedin”. Further, the IC50 in data set [2], in data set [3] and in data set [4] was less than 1 nM each time.
For `COc1cc2c(cc1N)C(C)(C)CN[C@]21CS[C@@H]2c3c(OC(C)=O)c(C)c4c(c3[C@H](COC1=O)N1[C@@H]2[C@H]2c3c(cc(C)c(OC)c3O)C[C@@H]([C@@H]1O)N2C)OCO4` [P52], the in-vitro cytotoxic activities entry in data set [1] was “superior to or comparable to those of trabectedin and lurbinectedin”. Besides, the IC50 in data set [2], in data set [3] and in data set [4] was less than 1 nM throughout.
Turning to `COc1cc2c(cc1NC(=O)C(O)C1CC1)CCN[C@]21CS[C@@H]2c3c(OC(C)=O)c(C)c4c(c3[C@H](COC1=O)N1[C@@H]2[C@H]2c3c(cc(C)c(OC)c3O)C[C@@H]([C@@H]1C#N)N2C)OCO4` (some centres unmarked) [P58], the in-vitro cytotoxic activities result in data set [1] was “superior to or comparable to those of trabectedin and lurbinectedin”. Also, the 50% inhibitory concentration (IC50) in data set [2], in data set [3] and in data set [4] was less than 1 nM throughout.
On to `COc1cc2c(cc1NC(=O)[C@H]1C[C@@H](O)C1)CCN[C@]21CS[C@@H]2c3c(OC(C)=O)c(C)c4c(c3[C@H](COC1=O)N1[C@@H]2[C@H]2c3c(cc(C)c(OC)c3O)C[C@@H]([C@@H]1C#N)N2C)OCO4` [P74], for which the in-vitro cytotoxic activities result in data set [1] is “superior to or comparable to those of trabectedin and lurbinectedin”. In addition, the IC50 in data set [2], in data set [3] and in data set [4] was less than 1 nM each time.
As for `COc1cc2c(cc1NC(=O)[C@H]1C[C@H](O)C1)CCN[C@]21CS[C@@H]2c3c(OC(C)=O)c(C)c4c(c3[C@H](COC1=O)N1[C@@H]2[C@H]2c3c(cc(C)c(OC)c3O)C[C@@H]([C@@H]1C#N)N2C)OCO4` [P75], the in-vitro cytotoxic activities entry in data set [1] was “superior to or comparable to those of trabectedin and lurbinectedin”. The IC50 in data set [2], in data set [3] and in data set [4] was less than 1 nM each time.
Consider `COc1c(C)cc2c(c1O)[C@@H]1[C@@H]3[C@@H]4SC[C@]5(NCCc6cc(NC(=O)CO)c(F)cc65)C(=O)OC[C@@H](c5c6c(c(C)c(OC(C)=O)c54)OCO6)N3[C@@H](C#N)[C@H](C2)N1C` [P85], for which, in data set [1], the in-vitro cytotoxic activities result is “superior to or comparable to those of trabectedin and lurbinectedin”. Further, the IC50 in data set [2], in data set [3] and in data set [4] was less than 1 nM throughout.
`COc1cc2c(cc1NC(=O)CO)C(C)(C)CN[C@]21CS[C@@H]2c3c(OC(C)=O)c(C)c4c(c3[C@H](COC1=O)N1[C@@H]2[C@H]2c3c(cc(C)c(OC)c3O)C[C@@H]([C@@H]1C#N)N2C)OCO4` [P96]: in data set [1], the in-vitro cytotoxic activities entry was “superior to or comparable to those of trabectedin and lurbinectedin”. The IC50 in data set [2], in data set [3] and in data set [4] was less than 1 nM each time.
`COc1c(C)cc2c(c1O)[C@@H]1[C@@H]3[C@@H]4SC[C@]5(NCCc6c5ccc(N)c6OC)C(=O)OC[C@@H](c5c6c(c(C)c(OC(C)=O)c54)OCO6)N3[C@@H](C#N)[C@H](C2)N1C` [P166]: the in-vitro cytotoxic activities entry in data set [1] was “superior to or comparable to those of trabectedin and lurbinectedin”. Further, the IC50 in data set [2], in data set [3] and in data set [4] was less than 1 nM in each case.
`COc1c(C)cc2c(c1O)[C@@H]1[C@@H]3[C@@H]4SC[C@]5(NCCc6c5ccc(NC(=O)CO)c6OC)C(=O)OC[C@@H](c5c6c(c(C)c(OC(C)=O)c54)OCO6)N3[C@@H](C#N)[C@H](C2)N1C` [P170]: the in-vitro cytotoxic activities entry in data set [1] is “superior to or comparable to those of trabectedin and lurbinectedin”. Besides, the IC50 in data set [2], in data set [3] and in data set [4] was less than 1 nM throughout.
For the molecule `COc1c(C)cc2c(c1O)[C@@H]1[C@@H]3[C@@H]4SC[C@]5(NCCc6cc(N)c(C)cc65)C(=O)OC[C@@H](c5c6c(c(C)c(OC(C)=O)c54)OCO6)N3[C@@H](C#N)[C@H](C2)N1C` [P172], the in-vitro cytotoxic activities entry in data set [1] is “superior to or comparable to those of trabectedin and lurbinectedin”. Also, the half-maximal inhibitory concentration (IC50) in data set [2], in data set [3] and in data set [4] was less than 1 nM throughout.
`COc1cc(N)cc2c1[C@@]1(CS[C@@H]3c4c(OC(C)=O)c(C)c5c(c4[C@H](COC1=O)N1[C@@H]3[C@H]3c4c(cc(C)c(OC)c4O)C[C@@H]([C@@H]1C#N)N3C)OCO5)NCC2` [T1]: the in-vitro cytotoxic activities entry in data set [1] was “superior to or comparable to those of trabectedin and lurbinectedin”. In addition, the IC50 in data set [2], in data set [3] and in data set [4] was less than 1 nM each time.
For the molecule `COc1c(C)cc2c(c1O)[C@@H]1[C@@H]3[C@@H]4SC[C@]5(NCC(C)(C)c6cc(N)c(F)cc65)C(=O)OC[C@@H](c5c6c(c(C)c(OC(C)=O)c54)OCO6)N3[C@@H](C#N)[C@H](C2)N1C` [T3], in data set [1], the in-vitro cytotoxic activities result was “superior to or comparable to those of trabectedin and lurbinectedin”. The half-inhibitory concentration (IC50) in data set [2], in data set [3] and in data set [4] was less than 1 nM each time.
With `COc1c(C)cc2c(c1O)[C@@H]1[C@@H]3[C@@H]4SC[C@]5(NCCc6cc(NC(=O)C7(O)CC7)c(F)cc65)C(=O)OC[C@@H](c5c6c(c(C)c(OC(C)=O)c54)OCO6)N3[C@@H](C#N)[C@H](C2)N1C` [T4], in data set [1], the in-vitro cytotoxic activities entry was “superior to or comparable to those of trabectedin and lurbinectedin”. Also, the IC50 in data set [2], in data set [3] and in data set [4] was less than 1 nM each time.
With `COc1cc2c(cc1N)C(OC)CN[C@]21CS[C@@H]2c3c(OC(C)=O)c(C)c4c(c3[C@H](COC1=O)N1[C@@H]2[C@H]2c3c(cc(C)c(OC)c3O)C[C@@H]([C@@H]1C#N)N2C)OCO4` (some centres unmarked) [T10], in data set [1], the in-vitro cytotoxic activities result is “superior to or comparable to those of trabectedin and lurbinectedin”. The IC50 in data set [2], in data set [3] and in data set [4] was less than 1 nM throughout.
With `COc1cc2c(cc1N(C)C(=O)CO)CCN[C@]21CS[C@@H]2c3c(OC(C)=O)c(C)c4c(c3[C@H](COC1=O)N1[C@@H]2[C@H]2c3c(cc(C)c(OC)c3O)C[C@@H]([C@@H]1C#N)N2C)OCO4` [T17], the in-vitro cytotoxic activities result in data set [1] was “superior to or comparable to those of trabectedin and lurbinectedin”. For the same molecule, the concentration for half-maximal inhibition (IC50) in data set [2], in data set [3] and in data set [4] was less than 1 nM each time.
